Test results reported in ChEMBL document CHEMBL3817754, “Synthesis and evaluation of donepezilferulic acid hybrids as multi-target-directed ligands against Alzheimer's disease” (Medchemcomm, 2016).
Calls of active or inactive are those of the source. No cut-off for these calls is given here.

What was measured:
[1] = biological target: Cholinesterase (Equus caballus) (UniProt P81908); assay: Inhibition of equine serum butyrylcholinesterase at 1000 uM preincubated for 5 mins followed by addition of S-butyrylthiocholine iodide as substrate measured after 60 to 120 mins by Ellmans method
Cholinesterase (Equus caballus), sequence (P81908 whole entry): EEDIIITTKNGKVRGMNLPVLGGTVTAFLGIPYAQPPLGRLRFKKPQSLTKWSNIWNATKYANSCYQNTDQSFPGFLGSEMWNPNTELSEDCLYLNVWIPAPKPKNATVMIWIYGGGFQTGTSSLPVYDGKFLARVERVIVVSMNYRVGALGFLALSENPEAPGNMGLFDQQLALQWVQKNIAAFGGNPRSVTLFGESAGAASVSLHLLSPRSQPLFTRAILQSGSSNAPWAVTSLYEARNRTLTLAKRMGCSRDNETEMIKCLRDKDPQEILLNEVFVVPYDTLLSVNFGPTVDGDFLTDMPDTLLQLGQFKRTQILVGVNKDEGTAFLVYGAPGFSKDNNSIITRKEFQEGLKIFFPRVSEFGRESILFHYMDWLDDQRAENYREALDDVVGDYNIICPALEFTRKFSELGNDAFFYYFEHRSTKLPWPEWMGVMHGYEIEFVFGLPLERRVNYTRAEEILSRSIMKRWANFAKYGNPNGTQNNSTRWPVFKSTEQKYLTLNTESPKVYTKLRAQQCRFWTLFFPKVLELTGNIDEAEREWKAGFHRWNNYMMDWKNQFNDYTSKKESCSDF

[2] = biological target: Acetylcholinesterase (Electrophorus electricus, UniProt O42275); assay: Inhibition of electric eel acetylcholinesterase preincubated for 5 mins followed by addition of acetylthiocholine iodide as substrate measured after 60 to 120 mins by Ellmans method
Acetylcholinesterase (Electrophorus electricus, UniProt O42275), sequence (O42275 whole entry): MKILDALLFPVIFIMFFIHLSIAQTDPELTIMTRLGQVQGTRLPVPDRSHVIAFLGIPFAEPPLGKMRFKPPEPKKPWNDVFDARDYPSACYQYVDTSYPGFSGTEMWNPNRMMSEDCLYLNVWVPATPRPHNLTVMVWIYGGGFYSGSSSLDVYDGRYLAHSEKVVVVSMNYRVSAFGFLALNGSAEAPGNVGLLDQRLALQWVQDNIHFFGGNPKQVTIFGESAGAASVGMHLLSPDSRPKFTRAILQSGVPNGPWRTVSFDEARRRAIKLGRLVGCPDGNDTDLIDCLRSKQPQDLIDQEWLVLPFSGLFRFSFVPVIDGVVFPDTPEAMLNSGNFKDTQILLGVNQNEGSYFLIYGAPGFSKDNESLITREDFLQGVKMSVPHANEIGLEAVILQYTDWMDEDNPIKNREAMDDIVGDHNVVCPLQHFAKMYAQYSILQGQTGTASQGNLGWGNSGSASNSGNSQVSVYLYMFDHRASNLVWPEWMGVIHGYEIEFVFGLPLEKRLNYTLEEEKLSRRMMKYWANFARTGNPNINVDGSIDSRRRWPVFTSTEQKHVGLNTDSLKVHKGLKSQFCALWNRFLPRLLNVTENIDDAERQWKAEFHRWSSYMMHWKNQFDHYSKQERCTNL

[3] = Selectivity index, ratio of IC50 for equine serum butyrylcholinesterase to IC50 for electric eel acetylcholinesterase
[4] = DPPH radical solution, 30 min
Description: Antioxidant activity assessed as DPPH radical scavenging activity incubated in dark for 30 mins by spectrophotometry

[5] = Cytotoxicity against […] PC12 cells assessed as cell viability at 20 uM after 24 hrs by MTT assay; format: cell-based; conditions: rat, pc-12, 24 h
[6] = biological target: Cholinesterase (Equus caballus, UniProt P81908); assay: Inhibition of equine serum butyrylcholinesterase preincubated for 5 mins followed by addition of S-butyrylthiocholine iodide as substrate measured after 60 to 120 mins by Ellmans method
Cholinesterase (Equus caballus, UniProt P81908), sequence (P81908 whole entry): as the sequence (P81908 whole entry) above

[7] = biological target: Acetylcholinesterase (Electrophorus electricus) (UniProt O42275); assay: Inhibition of electric eel acetylcholinesterase at 1000 uM preincubated for 5 mins followed by addition of acetylthiocholine iodide as substrate measured after 60 to 120 mins by Ellmans method
Acetylcholinesterase (Electrophorus electricus), sequence (O42275 24-633 limits assumed): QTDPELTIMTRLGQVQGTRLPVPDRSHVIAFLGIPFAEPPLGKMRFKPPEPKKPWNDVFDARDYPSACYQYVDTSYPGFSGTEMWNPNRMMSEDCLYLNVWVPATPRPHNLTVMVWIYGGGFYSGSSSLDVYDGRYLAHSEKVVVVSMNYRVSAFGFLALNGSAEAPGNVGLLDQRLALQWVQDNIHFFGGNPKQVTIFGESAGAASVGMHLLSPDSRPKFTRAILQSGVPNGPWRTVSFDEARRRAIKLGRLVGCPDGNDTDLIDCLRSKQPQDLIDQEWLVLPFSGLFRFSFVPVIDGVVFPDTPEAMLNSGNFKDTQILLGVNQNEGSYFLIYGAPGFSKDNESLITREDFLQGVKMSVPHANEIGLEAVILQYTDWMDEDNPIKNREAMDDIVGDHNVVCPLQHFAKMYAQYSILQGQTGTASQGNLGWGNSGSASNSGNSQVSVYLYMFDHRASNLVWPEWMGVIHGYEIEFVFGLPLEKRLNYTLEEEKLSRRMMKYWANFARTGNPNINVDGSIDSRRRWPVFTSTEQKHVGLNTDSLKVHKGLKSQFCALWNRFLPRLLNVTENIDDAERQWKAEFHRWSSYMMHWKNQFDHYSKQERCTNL

[8] = biological target: Cholinesterase (Homo sapiens, UniProt P06276); assay: Inhibition of human serum butyrylcholinesterase preincubated for 5 mins followed by addition of S-butyrylthiocholine iodide as substrate measured after 60 to 120 mins by Ellmans method
Cholinesterase (Homo sapiens, UniProt P06276), sequence (P06276 whole entry): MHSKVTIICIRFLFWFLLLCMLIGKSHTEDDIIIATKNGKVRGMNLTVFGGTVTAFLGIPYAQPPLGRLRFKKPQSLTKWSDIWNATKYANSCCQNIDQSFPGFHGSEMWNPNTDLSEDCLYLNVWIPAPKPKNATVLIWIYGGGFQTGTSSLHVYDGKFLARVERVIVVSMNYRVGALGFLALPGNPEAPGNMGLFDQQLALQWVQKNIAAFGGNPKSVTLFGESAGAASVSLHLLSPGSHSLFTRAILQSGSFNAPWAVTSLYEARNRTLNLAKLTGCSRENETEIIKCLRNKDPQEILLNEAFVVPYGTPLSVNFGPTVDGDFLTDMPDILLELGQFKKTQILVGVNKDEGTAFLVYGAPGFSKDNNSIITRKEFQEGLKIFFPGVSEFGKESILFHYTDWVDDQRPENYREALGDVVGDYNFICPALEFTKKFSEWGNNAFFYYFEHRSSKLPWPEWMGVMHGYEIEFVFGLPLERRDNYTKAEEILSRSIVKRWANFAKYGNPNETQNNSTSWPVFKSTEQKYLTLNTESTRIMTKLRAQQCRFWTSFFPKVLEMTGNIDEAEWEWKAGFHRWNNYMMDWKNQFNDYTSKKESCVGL

[9] = species: Homo sapiens; assay: Selectivity index, ratio of IC50 for human serum butyrylcholinesterase to IC50 for human erythrocytes acetylcholinesterase
[10] = Antioxidant activity assessed as DPPH radical scavenging activity at 1000 uM incubated in dark for 30 mins by spectrophotometry; format: physicochemical; conditions: 0.5 h
[11] = biological target: Acetylcholinesterase (Homo sapiens, UniProt P22303); assay: Inhibition of human erythrocytes acetylcholinesterase preincubated for 5 mins followed by addition of acetylthiocholine iodide as substrate measured after 60 to 120 mins by Ellmans method
Acetylcholinesterase (Homo sapiens, UniProt P22303), sequence (P22303 whole entry): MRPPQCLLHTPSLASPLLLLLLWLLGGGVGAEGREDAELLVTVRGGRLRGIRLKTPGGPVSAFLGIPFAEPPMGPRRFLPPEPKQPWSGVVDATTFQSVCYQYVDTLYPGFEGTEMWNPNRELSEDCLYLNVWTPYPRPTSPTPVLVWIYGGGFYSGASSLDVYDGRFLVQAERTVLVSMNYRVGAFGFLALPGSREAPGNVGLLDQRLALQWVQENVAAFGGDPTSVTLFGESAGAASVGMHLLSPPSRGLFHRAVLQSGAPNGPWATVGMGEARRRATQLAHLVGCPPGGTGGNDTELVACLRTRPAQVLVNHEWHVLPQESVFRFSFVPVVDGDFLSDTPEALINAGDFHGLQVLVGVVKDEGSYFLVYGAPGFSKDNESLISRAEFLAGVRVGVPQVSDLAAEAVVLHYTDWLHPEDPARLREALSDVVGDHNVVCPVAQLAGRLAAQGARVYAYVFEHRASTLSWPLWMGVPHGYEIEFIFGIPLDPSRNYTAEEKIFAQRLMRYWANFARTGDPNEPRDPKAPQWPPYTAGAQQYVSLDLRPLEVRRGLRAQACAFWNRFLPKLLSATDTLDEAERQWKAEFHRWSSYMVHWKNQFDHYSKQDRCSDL

[12] = in vitro; conditions: PAMPA
[13] = tested on: PC-12; assay: Neuroprotective activity against H2O2 induced damage in […] PC12 cells assessed as cell viability at 1 to 10 uM preincubated for 4 hrs followed by H2O2 challenge for 20 hrs by MTT assay; format: functional, cell-based; conditions: Rattus norvegicus

## NCCC1CCN(Cc2ccccc2)CC1
[1]
  inhibition: inactive
[2]
  IC50: 159 µM

## COc1cc(CCC(=O)NC2CCN(Cc3ccccc3)CC2)ccc1O
[3]
  Ratio IC50: 0.949
[4]
  IC50: 55.1 µM
[2]
  IC50: 33.6 µM
[5]
  Activity: Non-toxic
[6]
  IC50: 31.9 µM

## COc1cc(/C=C/C(=O)O)ccc1O [FERULATE]
[3]
  Ratio IC50: 4.95
[4]
  IC50: 30.6 µM
[1]
  inhibition: inactive
[7]
  inhibition: inactive

## O=C(/C=C/c1ccc(O)cc1)NC1CCN(Cc2ccccc2)CC1
[3]
  Ratio IC50: 2.06
[4]
  IC50: 980 µM
[2]
  IC50: 70.8 µM
[5]
  Activity: Non-toxic
[6]
  IC50: 146 µM

## O=C(/C=C/c1ccc(Cl)cc1)NCCC1CCN(Cc2ccccc2)CC1
[8]
  IC50: 2070 nM
[3]
  Ratio IC50: 5.32
[2]
  IC50: 0.521 µM
[9]
  Ratio IC50: 5.72
[5]
  Activity: Toxic
[10]
  inhibition (INH): Not Active
[11]
  IC50: 362 nM
[6]
  IC50: 2.77 µM

## O=C(/C=C/c1ccc([N+](=O)[O-])cc1)NCCC1CCN(Cc2ccccc2)CC1
[8]
  IC50: 4230 nM
[3]
  Ratio IC50: 6.98
[2]
  IC50: 0.444 µM
[9]
  Ratio IC50: 12.5
[5]
  Activity: Non-toxic
[10]
  inhibition (INH): Not Active
[11]
  IC50: 337 nM
[6]
  IC50: 3.1 µM

## O=C(/C=C/c1ccc(O)cc1)CC(=O)NC1CCN(Cc2ccccc2)CC1
[3]
  Ratio IC50: 0.053
[4]
  IC50: 890 µM
[2]
  IC50: 58.3 µM
[5]
  Activity: Non-toxic
[6]
  IC50: 3.1 µM

## O=C(/C=C/c1ccc(F)cc1)NCCC1CCN(Cc2ccccc2)CC1
[8]
  IC50: 7510 nM
[3]
  Ratio IC50: 2.43
[2]
  IC50: 0.815 µM
[9]
  Ratio IC50: 2.28
[5]
  Activity: Non-toxic
[10]
  inhibition (INH): Not Active
[11]
  IC50: 3300 nM
[6]
  IC50: 1.98 µM

## O=C(/C=C/c1ccc(Cl)cc1)NC1CCN(Cc2ccccc2)CC1
[3]
  Ratio IC50: 0.759
[2]
  IC50: 67.7 µM
[5]
  Activity: Non-toxic
[10]
  inhibition (INH): Not Active
[6]
  IC50: 51.4 µM

## O=C(/C=C/c1ccc(O)c(O)c1)NCCC1CCN(Cc2ccccc2)CC1
[8]
  IC50: 145000 nM
[3]
  Ratio IC50: 31.9
[4]
  IC50: 10.7 µM
[2]
  IC50: 5.17 µM
[12]
  Papp at 16 h, 5 mg/mL: 5.38 ×10⁻⁶ cm/s
[9]
  Ratio IC50: 100
[5]
  Activity: Non-toxic
[11]
  IC50: 1450 nM
[6]
  IC50: 165 µM
[13]
  Activity: Active

## COc1cc(/C=C/C(=O)NCCC2CCN(Cc3ccccc3)CC2)cc(OC)c1OC
[8]
  IC50: 669 nM
[3]
  Ratio IC50: 3.2
[2]
  IC50: 0.13 µM
[12]
  Papp at 16 h, 5 mg/mL: 7.43 ×10⁻⁶ cm/s
[9]
  Ratio IC50: 2.86
[5]
  Activity: Non-toxic
[10]
  inhibition (INH): Not Active
[11]
  IC50: 234 nM
[6]
  IC50: 0.416 µM

## COc1cc(/C=C/C(=O)NC2CCN(Cc3ccccc3)CC2)cc(OC)c1O
[3]
  Ratio IC50: 0.26
[4]
  IC50: 22.3 µM
[2]
  IC50: 28.2 µM
[5]
  Activity: Non-toxic
[6]
  IC50: 7.34 µM

## COc1cc(/C=C/C(=O)NCCC2CCN(Cc3ccccc3)CC2)ccc1O
[8]
  IC50: 1120 nM
[3]
  Ratio IC50: 1.87
[4]
  IC50: 34.1 µM
[2]
  IC50: 0.651 µM
[12]
  Papp at 16 h, 5 mg/mL: 5.16 ×10⁻⁶ cm/s
[9]
  Ratio IC50: 1.54
[5]
  Activity: Non-toxic
[11]
  IC50: 729 nM
[6]
  IC50: 1.22 µM
[13]
  Activity: Active

## O=C(/C=C/c1ccccc1O)NCCC1CCN(Cc2ccccc2)CC1
[8]
  IC50: 988 nM
[3]
  Ratio IC50: 0.491
[4]
  IC50: 977 µM
[2]
  IC50: 2.16 µM
[9]
  Ratio IC50: 0.37
[5]
  Activity: Non-toxic
[11]
  IC50: 2680 nM
[6]
  IC50: 1.06 µM

## O=C(/C=C/c1ccc(F)cc1)NC1CCN(Cc2ccccc2)CC1
[3]
  Ratio IC50: 1.53
[2]
  IC50: 59.3 µM
[5]
  Activity: Non-toxic
[10]
  inhibition (INH): Not Active
[6]
  IC50: 90.8 µM

## O=C(/C=C/c1ccccc1)NCCC1CCN(Cc2ccccc2)CC1
[8]
  IC50: 1410 nM
[3]
  Ratio IC50: 0.718
[2]
  IC50: 0.543 µM
[9]
  Ratio IC50: 3.43
[5]
  Activity: Non-toxic
[10]
  inhibition (INH): Not Active
[11]
  IC50: 411 nM
[6]
  IC50: 0.39 µM

## COc1cc(/C=C/C(=O)CC(=O)NC2CCN(Cc3ccccc3)CC2)ccc1O
[3]
  Ratio IC50: 1.99
[4]
  IC50: 88.7 µM
[2]
  IC50: 26.3 µM
[5]
  Activity: Non-toxic
[6]
  IC50: 53.2 µM
